How the values were obtained:
[1] = in-vitro and animal study of toxicity; assay type: in vivo
Excerpt: (§1) The Atovaquone prodrug compound of formula (I) of the present invention overcomes the problems associated with poor solubility and variable bioavailability of atovaquone.

[2] = solubility of the prodrug compared with atovaquone; assay type: physicochemical
Excerpt: as §1

[3] = plasma levels of atovaquone after administration of the prodrug; conditions: in vivo
Excerpt: as §1

Compound: Cc1oc(=O)oc1COC1=C(C2CCC(c3ccc(Cl)cc3)CC2)C(=O)c2ccccc2C1=O (stereo not drawn) [compound of formula (I), 3-(5-methyl-2-oxo-1,3-dioxol-4-yl)methyloxy-2-trans-[(4-chlorophenyl)cyclohexyl][1,4]naphthaquinone]
- toxicity [1]: toxicity in the acceptable range
- solubility compared with atovaquone [2]: better solubility than atovaquone
- plasma levels of atovaquone compared with levels after administration of atovaquone [3]: non-variable plasma levels of atovaquone

Source: patent publication US9169232B2, “3-(5-methyl-2-oxo-l, 3-dioxol-4-yl) methyloxy-2-trans-[(4-chloro phenyl) cyclohexyl][1,4]naphthaquinone-atovaquone prodrug” (Alkem Laboratories Limited, priority 2011, dated 2015)
